Results: the supplement of paper PMC11208160

Assay: recombinant UMI read abundance after kanamycin selection (control-corrected) (log10(CPM+1)); higher = more efficient recombination; extreme values may be limits of the assay; sequences stand for … in AGTGCAGAGAAAATCGGCCAGTTTTCTCTGCCTGCAGTCCGCATGCCGTGGGACCCCTTGGGTTCTAACCTGTTGCCTAGATTTATGCAGCGGACTGCCTTTCTCCCAAAGTGATAAACCGG…AGGTTGGTTTCACT; site = the 11-nt donor
Outline: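 Values are reported as log10(CPM+1), obtained by converting sequencing counts to CPM, averaging replicates and scaling by control-derived factors. The counts came from recombinant UMIs amplified by PCR across the donor–target junction. These UMIs came from a pooled Escherichia coli screen of donor and donor-binding-loop pairs for the IS621 bridge recombinase, plated with IPTG (0.07 mM) plus kanamycin or left unselected, in two replicates each.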
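Note: IS621 bridge recombinase in Escherichia coli cells against a fixed T5 target plasmid.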

Sequence | recombinant UMI read abundance (log10)
TTAGCTGCATGGACCGGTTTTCCCGGTAATCCGTATTTGTG (site TTAGCCGCTCA) | 0
TTAGCTGCATGGACCGGTTTTCCCGGTAATCCGTATTTGTG (site TTAGCGGCTCA) | 0.00865
TTAGCTGCATGGACCGGTTTTCCCGGTAATCCGTATTTGTG (site TTAGCTACTCA) | 0.0282
TTAGCTGCATGGACCGGTTTTCCCGGTAATCCGTATTTGTG (site TTAGCTCCTCA) | 0.0123
TTAGCTGCATGGACCGGTTTTCCCGGTAATCCGTATTTGTG (site TTAGCTGCTAA) | 0.0166
TTAGCTGCATGGACCGGTTTTCCCGGTAATCCGTATTTGTG (site TTAGCTGCTCA) | 0.543
TTAGCTGCATGGACCGGTTTTCCCGGTAATCCGTATTTGTG (site TTAGCTGCTCC) | 0.0667
TTAGCTGCATGGACCGGTTTTCCCGGTAATCCGTATTTGTG (site TTAGCTGCTCG) | 0.0153
TTAGCTGCATGGACCGGTTTTCCCGGTAATCCGTATTTGTG (site TTAGCTGCTCT) | 0.162
TTAGCTGCATGGACCGGTTTTCCCGGTAATCCGTATTTGTG (site TTAGCTGCTGA) | 0.631
TTAGCTGCATGGACCGGTTTTCCCGGTAATCCGTATTTGTG (site TTAGCTGCTTA) | 0.192
TTAGCTGCATGGACCGGTTTTCCCGGTAATCCGTATTTGTG (site TTAGCTTCTCA) | 0.00647
TTAGCTGCATGGACCGGTTTTCCCGGTAATCCGTATTTGTG (site TTAGGTGCTCA) | 0.0094
TTAGCTGCATGGACCGGTTTTCCCGGTAATCCGTATTTGTG (site TTAGTTGCTCA) | 0.00547
TTAGCTGCATGGACCGGTTTTCCCGGTAATCCGTATTTGTG (site TTATCTGCTCA) | 0.0225
TTAGCTGCATGGACCGGTTTTCCCGGTAATCCGTATTTGTG (site TTCGCTGCTCA) | 0.00425
TTAGCTGCATGGACCGGTTTTCCCGGTAATCCGTATTTGTG (site TTGGCTGCTCA) | 0.0755
TTAGCTGCATGGACCGGTTTTCCCGGTAATCCGTATTTGTG (site TTTGCTGCTCA) | 0.00733
TTAGGTGCATGGACCGGTTTTCCCGGTAATCCGTATTTGGT (site TTAGGTGCTAC) | 1.17

Sequence | recombinant UMI read abundance (log10)
TTAGGTGCATGGACCGGTTTTCCCGGTAATCCGTATTTGTG (site TTAGATGCTCA) | 0.787
TTAGGTGCATGGACCGGTTTTCCCGGTAATCCGTATTTGTG (site TTAGCTGCTCA) | 0.0453
TTAGGTGCATGGACCGGTTTTCCCGGTAATCCGTATTTGTG (site TTAGGTGCTCA) | 0.831
TTAGGTGCATGGACCGGTTTTCCCGGTAATCCGTATTTGTG (site TTAGTTGCTCA) | 0.0384
TTAGTAACATGGACCGGTTTTCCCGGTAATCCGTATTTGAC (site CTAGTATCTGT) | 1.07
TTAGTAACATGGACCGGTTTTCCCGGTAATCCGTATTTGAC (site TTAGTAACTGT) | 2.16
TTAGTATCATGGACCGGTTTTCCCGGTAATCCGTATTTGCA (site ACAGTATCTTG) | 1.99
TTAGTATCATGGACCGGTTTTCCCGGTAATCCGTATTTGCA (site TTAGTATCTTG) | 1.42
TTAGTCTCATGGACCGGTTTTCCCGGTAATCCGTATTTGAT (site TTAGTCTCTAT) | 2.82
TTAGTTACATGGACCGGTTTTCCCGGTAATCCGTATTTGCC (site TTAGTTACTGG) | 2.18
TTATACTCATGGACCGGTTTTCCCGGTAATCCGTATTTGCA (site TAATACTCTTG) | 1.93
TTATACTCATGGACCGGTTTTCCCGGTAATCCGTATTTGCA (site TCATACTCTTG) | 1.9
TTATACTCATGGACCGGTTTTCCCGGTAATCCGTATTTGCA (site TGATACTCTTG) | 2.05
TTATACTCATGGACCGGTTTTCCCGGTAATCCGTATTTGCA (site TTATACTCTTG) | 2.72
TTATCATCATGGACCGGTTTTCCCGGTAATCCGTATTTGAG (site TTATCATCTCT) | 0.385
TTATGACCATGGACCGGTTTTCCCGGTAATCCGTATTTGAC (site TTATGACCTGT) | 0
TTATGCACATGGACCGGTTTTCCCGGTAATCCGTATTTGGC (site TTATGCACTGC) | 1.93
TTATGTCCATGGACCGGTTTTCCCGGTAATCCGTATTTGTA (site TTATGTCCTTA) | 0.134
